Drawing on US10820591B2, “Substituted sulfonyl amides for controlling animal pests” (Bayer Aktiengesellschaft, priority 2016, dated 2020), this text covers pest or weed control for 69 compounds.

Molecules are shown by their SMILES.

The assay deals with Meloidogyne incognita. Kind of assay: Meloidogyne incognita test (sand, lettuce, gall formation). The format is in vivo. Particulars: Meloidogyne incognita, 336 h, 20 ppm, after 14 days; read-out: nematicidal efficacy (formation of galls). In short, it runs like this: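 Gall counts on lettuce roots were scored after 14 days in sand inoculated with root-knot nematode eggs/larvae plus compound diluted in water. Values run from 0% (galls as in untreated plants) to 100% (gall-free).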
For `Cc1nc(C(=O)NS(=O)(=O)c2ccccc2Cl)cn1-c1ccc(Cl)cc1` [I-257], the pest or weed control at 20 ppm turned out to be 90%.
The same measure for `Cc1nc(C(=O)NS(=O)(=O)c2c(Cl)cccc2Cl)cn1-c1ccc(Cl)cc1` [I-258]: 70%; for `COc1ccc(Cl)c(S(=O)(=O)NC(=O)c2cn(-c3ccc(Cl)cc3)c(C)n2)c1` [I-259]: 100%; for `COc1ccc(Cl)c(S(=O)(=O)NC(=O)c2cn(-c3ccccc3F)c(C)n2)c1` [I-260]: 70%.
The same measure for `Cc1nc(C(=O)NS(=O)(=O)c2cccc(Cl)c2)cn1-c1ccc(Cl)cc1` [I-261]: 100%.
For the compound `Cc1nc(C(=O)NS(=O)(=O)c2ccc(Cl)cc2)cn1-c1ccc(Cl)cc1` [I-262], the pest or weed control at 20 ppm turned out to be 100%.
For the compound `COc1ccc(Cl)c(S(=O)(=O)NC(=O)c2cn(-c3cccc(Cl)c3Cl)c(C)n2)c1` [I-263], the pest or weed control at 20 ppm was found to be 90%.
Take `Cc1nc(C(=O)NS(=O)(=O)c2c(Cl)cccc2Cl)cn1-c1ccccc1Cl` [I-265]: the pest or weed control at 20 ppm amounted to 90%.
For the compound `Cc1nc(C(=O)NS(=O)(=O)c2c(Cl)cccc2Cl)cn1-c1cccc(Cl)c1Cl` [I-267], the pest or weed control at 20 ppm turned out to be 100%.
Regarding `Cc1nc(C(=O)NS(=O)(=O)c2ccccc2)cn1-c1ccccc1Cl` [I-270], the pest or weed control at 20 ppm amounted to 90%.
The same measure for `Cc1nc(C(=O)NS(=O)(=O)c2ccc(Cl)cc2)cn1-c1cccc(Cl)c1Cl` [I-271]: 100%; for `O=C(NS(=O)(=O)c1ccccc1)c1cn(-c2cc(Cl)cc(C(F)(F)F)c2)cn1` [I-272]: 90%.
The same measure for `O=C(NS(=O)(=O)c1ccccc1)c1cn(-c2cc(Br)cc(Br)c2)cn1` [I-273]: 90%; for `Cc1nc(C(=O)NS(=O)(=O)c2c(Cl)cccc2Cl)cn1-c1cccc(C(F)(F)F)c1` [I-274]: 90%.
The same measure for `COc1ccc(Cl)c(S(=O)(=O)NC(=O)c2cn(-c3cccc(C(F)(F)F)c3)c(C)n2)c1` [I-275]: 100%; for `O=C(NS(=O)(=O)c1ccccc1)c1cn(-c2cc(Br)cc(C(F)(F)F)c2)cn1` [I-276]: 70%; for `O=C(NS(=O)(=O)c1ccccc1Cl)c1cn(-c2cc(Br)cc(C(F)(F)F)c2)cn1` [I-277]: 70%.
For `O=C(NS(=O)(=O)c1ccccc1Cl)c1cn(-c2cc(Cl)cc(C(F)(F)F)c2)cn1` [I-278], the pest or weed control at 20 ppm amounted to 90%.
The same measure for `COc1ccc(Cl)c(S(=O)(=O)NC(=O)c2cn(-c3cc(Br)cc(C(F)(F)F)c3)cn2)c1` [I-279]: 90%.
The same measure for `COc1ccc(Cl)c(S(=O)(=O)NC(=O)c2cn(-c3cc(Cl)cc(C(F)(F)F)c3)cn2)c1` [I-280]: 90%; for `COc1ccc(Cl)c(S(=O)(=O)NC(=O)c2cn(-c3cc(C)cc(C(F)(F)F)c3)cn2)c1` [I-281]: 90%.
Regarding `COc1ccc(Cl)c(S(=O)(=O)NC(=O)c2cn(-c3cc(Br)cc(Br)c3)cn2)c1` [I-282], the pest or weed control at 20 ppm came to 90%.
The same measure for `Cc1cc(C)cc(-n2cnc(C(=O)NS(=O)(=O)c3ccccc3Cl)c2)c1` [I-283]: 90%; for `O=C(NS(=O)(=O)c1ccccc1Cl)c1cn(-c2cc(C(F)(F)F)cc(C(F)(F)F)c2)cn1` [I-285]: 90%; for `COc1ccc(Cl)c(S(=O)(=O)NC(=O)c2cn(-c3cc(F)cc(F)c3)cn2)c1` [I-287]: 100%.
As to `COc1ccc(Cl)c(S(=O)(=O)NC(=O)c2cn(-c3cc(C)cc(C)c3)cn2)c1` [I-288], the pest or weed control at 20 ppm was determined as 100%.
For `O=C(NS(=O)(=O)c1ccccc1Cl)c1cn(-c2cc(Br)cc(Br)c2)cn1` [I-289], the pest or weed control at 20 ppm was determined as 90%.
For `Cc1cc(-n2cnc(C(=O)NS(=O)(=O)c3ccccc3Cl)c2)cc(C(F)(F)F)c1` [I-290], the pest or weed control at 20 ppm worked out at 100%.
The same measure for `O=C(NS(=O)(=O)c1c(Cl)cccc1Cl)c1cn(-c2cc(C(F)(F)F)cc(C(F)(F)F)c2)cn1` [I-292]: 90%.
The same measure for `O=C(NS(=O)(=O)c1c(Cl)cccc1Cl)c1cn(-c2cc(Br)cc(Br)c2)cn1` [I-293]: 100%; for `O=C(NS(=O)(=O)c1ccccc1C(F)(F)F)c1cn(-c2cc(C(F)(F)F)cc(C(F)(F)F)c2)cn1` [I-294]: 90%; for `O=C(NS(=O)(=O)c1ccccc1C(F)(F)F)c1cn(-c2cc(Cl)cc(C(F)(F)F)c2)cn1` [I-295]: 90%.
Regarding `O=C(NS(=O)(=O)c1ccccc1C(F)(F)F)c1cn(-c2cc(F)cc(C(F)(F)F)c2)cn1` [I-296], the pest or weed control at 20 ppm turned out to be 90%.
The same measure for `O=C(NS(=O)(=O)c1c(Cl)cccc1Cl)c1cn(-c2cc(Br)cc(C(F)(F)F)c2)cn1` [I-297]: 90%; for `COc1ccc(Cl)c(S(=O)(=O)NC(=O)c2cn(-c3cc(C(F)(F)F)cc(C(F)(F)F)c3)cn2)c1` [I-298]: 90%.
Take `Cc1cc(C)cc(-n2cnc(C(=O)NS(=O)(=O)c3c(Cl)cccc3Cl)c2)c1` [I-299]: the pest or weed control at 20 ppm was found to be 90%.
The same measure for `O=C(NS(=O)(=O)c1ccccc1)c1cn(-c2cc(F)cc(C(F)(F)F)c2)cn1` [I-301]: 100%.
The same measure for `O=C(NS(=O)(=O)c1ccccc1Cl)c1cn(-c2cc(Cl)c(Cl)c(Cl)c2)cn1` [I-302]: 100%; for `COc1ccc(Cl)c(S(=O)(=O)NC(=O)c2cn(-c3cc(Cl)c(Cl)c(Cl)c3)cn2)c1` [I-303]: 90%.
The same measure for `O=C(NS(=O)(=O)c1ccccc1)c1cn(-c2cc(Cl)c(Cl)c(Cl)c2)cn1` [I-304]: 90%.
Consider `O=C(NS(=O)(=O)c1c(Cl)cccc1Cl)c1cn(-c2cc(Cl)c(Cl)c(Cl)c2)cn1` [I-305], for which the pest or weed control at 20 ppm came to 90%.
The same measure for `O=C(NS(=O)(=O)c1ccc(Cl)cc1Cl)c1cn(-c2cc(Cl)c(Cl)c(Cl)c2)cn1` [I-306]: 90%; for `O=C(NS(=O)(=O)c1ccccc1Cl)c1cn(-c2cc(F)c(F)c(F)c2)cn1` [I-307]: 100%.
The same measure for `O=C(NS(=O)(=O)c1ccccc1Cl)c1cn(-c2cc(F)c(Br)c(F)c2)cn1` [I-308]: 90%; for `O=C(NS(=O)(=O)c1ccc(Cl)cc1Cl)c1cn(-c2cc(Cl)cc(C(F)(F)F)c2)cn1` [I-309]: 90%; for `O=C(NS(=O)(=O)c1ccccc1Cl)c1cn(-c2cc(F)cc(F)c2Cl)cn1` [I-310]: 100%.
The same measure for `O=C(NS(=O)(=O)c1ccccc1Cl)c1cn(-c2cc(Cl)c(Br)c(Cl)c2)cn1` [I-311]: 90%; for `O=C(NS(=O)(=O)c1ccccc1)c1cn(-c2cc(Cl)c(Br)c(Cl)c2)cn1` [I-312]: 90%.
On to `O=C(NS(=O)(=O)c1c(Cl)cccc1Cl)c1cn(-c2cc(Cl)c(Br)c(Cl)c2)cn1` [I-313], for which the pest or weed control at 20 ppm stood at 90%.
The same measure for `Cc1nc(C(=O)NS(=O)(=O)c2ccccc2)cn1-c1cc(Cl)cc(Cl)c1` [I-315]: 100%.
The same measure for `COc1ccc(Cl)c(S(=O)(=O)NC(=O)c2cn(-c3cc(Cl)cc(Cl)c3)c(C)n2)c1` [I-318]: 100%; for `CCOc1ccc(Cl)c(S(=O)(=O)NC(=O)c2cn(-c3cc(Cl)cc(Cl)c3)c(C)n2)c1` [I-319]: 100%.
The same measure for `COc1ccc(Cl)c(S(=O)(=O)NC(=O)c2cn(-c3cc(F)cc(F)c3)c(C)n2)c1` [I-320]: 100%.
Turning to `COc1ccc(Cl)c(S(=O)(=O)NC(=O)c2cn(-c3cc(F)cc(Cl)c3)c(C)n2)c1` [I-321], the pest or weed control at 20 ppm came out at 90%.
The same measure for `Cc1nc(C(=O)NS(=O)(=O)c2c(Cl)cccc2Cl)cn1-c1cc(F)cc(Cl)c1` [I-322]: 100%; for `Cc1nc(C(=O)NS(=O)(=O)c2c(Cl)cccc2Cl)cn1-c1cc(F)cc(F)c1` [I-323]: 100%.
Turning to `CCOc1ccc(Cl)c(S(=O)(=O)NC(=O)c2cn(-c3cc(Cl)cc(C(F)(F)F)c3)c(C)n2)c1` [I-324], the pest or weed control at 20 ppm turned out to be 100%.
The same measure for `Cc1nc(C(=O)NS(=O)(=O)c2c(Cl)cccc2Cl)cn1-c1cc(Cl)cc(C(F)(F)F)c1` [I-325]: 90%; for `Cc1nc(C(=O)NS(=O)(=O)c2ccccc2Cl)cn1-c1cc(Cl)cc(C(F)(F)F)c1` [I-326]: 100%; for `Cc1nc(C(=O)NS(=O)(=O)c2ccccc2Cl)cn1-c1cc(F)cc(Cl)c1` [I-327]: 100%.
The same measure for `Cc1nc(C(=O)NS(=O)(=O)c2cc(Cl)ccc2Cl)cn1-c1cc(Cl)cc(Cl)c1` [I-328]: 90%.
The same measure for `Cc1nc(C(=O)NS(=O)(=O)c2cc(Cl)ccc2Cl)cn1-c1cc(F)cc(F)c1` [I-329]: 100%; for `Cc1nc(C(=O)NS(=O)(=O)c2ccccc2Cl)cn1-c1cc(F)cc(F)c1` [I-331]: 100%.
As to `COc1ccc(Cl)c(S(=O)(=O)NC(=O)c2cn(-c3cc(F)cc(C(F)(F)F)c3)c(C)n2)c1` [I-332], the pest or weed control at 20 ppm turned out to be 100%.
The same measure for `Cc1nc(C(=O)NS(=O)(=O)c2ccccc2Cl)cn1-c1cc(F)cc(C(F)(F)F)c1` [I-334]: 100%; for `COc1ccc(F)c(S(=O)(=O)NC(=O)c2cn(-c3cc(Cl)cc(C(F)(F)F)c3)cn2)c1` [I-335]: 90%.
The same measure for `COc1ccc(Br)c(S(=O)(=O)NC(=O)c2cn(-c3cc(Cl)cc(C(F)(F)F)c3)cn2)c1` [I-336]: 100%.
The same measure for `CCOc1ccc(Cl)c(S(=O)(=O)NC(=O)c2cn(-c3cc(Cl)cc(C(F)(F)F)c3)cn2)c1` [I-337]: 100%.
Take `COc1ccc(F)c(S(=O)(=O)NC(=O)c2cn(-c3cc(F)cc(Cl)c3)cn2)c1` [I-338]: the pest or weed control at 20 ppm turned out to be 100%.
